Data as given in patent publication US20250101436A1, “APTAMERS AND SMALL MOLECULE LIGANDS” (MeiraGTx UK II Limited, priority 2021, published 2025).

System: luciferase gene expression in HEK 293 cells in response to Comp. 004
Assay: Screen of riboswitch constructs with 12C6-1 variant aptamers (libraries N1-N5) against Comp. 004, luciferase in HEK 293 cells
Assay type: cell-based, human
Source text: Cloning of riboswitch constructs containing 12C6-1 variant aptamer sequences: 12C6-1 aptamer sequence was used as template, and nucleobases were randomized at certain position in the sequence. Aptamers incorporating random mutagenesis were synthesized by Integrated DNA Technologies, Inc. Golden Gate cloning strategy (New England Biolabs, NEB) was used to clone the synthesized aptamer sequences into intron-exon-intron cassette to replace the 12C6-1 aptamer in the Luci-12C6-1 riboswitch construct, generating riboswitch constructs containing variant aptamer sequences.
To further improve the riboswitch activity in responding to Comp. 004 and related compounds, the aptamer sequence 12C6-1 was subject to mutagenesis to generate aptamer variants, and the riboswitches containing the variant aptamers were screened against Comp. 004 for the ones that have improved dynamic range of induced gene expression (the fold induction), in comparison with the fold induction by parental riboswitch construct Luci-12C6-1. […] These loop or junction region alone or together with stem region in proximity were chosen for random mutagenesis to generate riboswitches with re-engineered aptamer sequences with improved activity.
Five aptamer libraries N1, N2, N3, N4 and N5 were generated by randomizing nucleotides at positions in J2-4, J2-3/J3-3a/J3a-2/P3, L3a, J4-5/J5-4/P4 and L5 regions of the parent 12C6-1 sequence, respectively (see FIGS. 3a and 3b). Single bacterial colonies were picked and plasmids containing variant riboswitch constructs were screened in HEK 293 cells for improved gene regulation activity in response to 25 µM Comp. 004 as compared to parent riboswitch construct Luci-12C6-1.

[1] = library N1 (J2-4), HEK 293, 25 M [sic] Comp. 004
[2] = library N2 variant aptamers (J2-3, P3-J3-3a, J3a-2 randomized) of 12C6-1 in riboswitch constructs, in response to Comp. 004, HEK 293 cells
[3] = library N5 variant aptamers (L5, X16-X21 randomized) of 12C6-1 in riboswitch constructs, in response to Comp. 004 treatment, HEK 293 cells

| Substance | Fold (induction of luciferase gene expression) [3] | further results |
| --- | --- | --- |
| N1_2G7 (CTGGGGAGTCCTTCATGCGGGGC; chemistry not given here) |  | Fold (induction of luciferase gene expression) [1]: 2.06 fold |
| N2_2H1 (CTGGGGAGTCCTTCATGC; chemistry not given here) |  | Fold (induction of luciferase gene expression) [2]: 1.1 fold |
| N5_1A1 (CTGGGGAGTCCT; chemistry not given here) | 670.2 fold |  |
| N2_2D11 (DNA CTGGGGAGTCCTTCATGC; chemistry not given here) |  | Fold (induction of luciferase gene expression) [2]: 1.3 fold |
| N5_1E5 (CTGGGGAGTCCT; chemistry not given here) | 681.3 fold |  |
| N5_1H3 (CTGGGGAGTCCT; chemistry not given here) | 764.7 fold |  |
| N5_7G10 (DNA CTGGGGAGTCCT; chemistry not given here) | 530.8 fold |  |
| N5_8H1 (DNA CTGGGGAGTCCT; chemistry not given here) | 1191.9 fold |  |
| N5_1C7 (CTGGGGAGTCCT; chemistry not given here) | 485.7 fold |  |
| N5_7C1 (CTGGGGAGTCCT; chemistry not given here) | 87.5 fold |  |
| N2_2F8 (DNA CTGGGGAGTCCTTCATGC; chemistry not given here) |  | Fold (induction of luciferase gene expression) [2]: 1.0 fold |
| N5_7G9 (DNA CTGGGGAGTCCT; chemistry not given here) | 841.7 fold |  |
| N2_2E5 (DNA CTGGGGAGTCCTTCATGC; chemistry not given here) |  | Fold (induction of luciferase gene expression) [2]: 1.2 fold |
| N5_1E9 (CTGGGGAGTCCT; chemistry not given here) | 699.7 fold |  |
| N5_7G11 (DNA CTGGGGAGTCCT; chemistry not given here) | 1533.8 fold |  |
| N5_1G6 (CTGGGGAGTCCT; chemistry not given here) | 1311.6 fold |  |

| Substance | Fold (induction of luciferase gene expression) [3] | further results |
| --- | --- | --- |
| N5_1H6 (CTGGGGAGTCCT; chemistry not given here) | 654.9 fold |  |
| N5_7B6 (CTGGGGAGTCCT; chemistry not given here) | 875.4 fold |  |
| N5_1H11 (CTGGGGAGTCCT; chemistry not given here) | 413.6 fold |  |
| N5_7H9 (DNA CTGGGGAGTCCT; chemistry not given here) | 860.0 fold |  |
| N5_7F11 (DNA CTGGGGAGTCCT; chemistry not given here) | 339.7 fold |  |
| N1_2D3 (CTGGGGAGTCCTTCATGCGGGGC; chemistry not given here) |  | Fold (induction of luciferase gene expression) [1]: 5.40 fold |
| N5_1A2 (CTGGGGAGTCCT; chemistry not given here) | 672.2 fold |  |
| N2_2C3 (CTGGGGAGTCCTTCATGC; chemistry not given here) |  | Fold (induction of luciferase gene expression) [2]: 1.1 fold |
| N5_13D5 (CTGGGGAGTCCT; chemistry not given here) | 749.4 fold |  |
| N5_7A7 (CTGGGGAGTCCT; chemistry not given here) | 1226.2 fold |  |
| N5_1H10 (CTGGGGAGTCCT; chemistry not given here) | 781.1 fold |  |
| N5_3D3 (CTGGGGAGTCCT; chemistry not given here) | 1222.7 fold |  |
| N5_4D8 (CTGGGGAGTCCT; chemistry not given here) | 565.6 fold |  |
| N5_13G5 (CTGGGGAGTCCT; chemistry not given here) | 1198.5 fold |  |
| N1_2E6 (CTGGGGAGTCCTTCATGCGGGGC; chemistry not given here) |  | Fold (induction of luciferase gene expression) [1]: 30.39 fold |
| N5_1B7 (CTGGGGAGTCCT; chemistry not given here) | 662.1 fold |  |
